# Laboratory results reported in US20150031761A1, “USE OF 5-AMINOLEVULINIC ACID AND DERIVATIVES IN A SOLID FORM FOR PHOTODYNAMIC TREATMENT AND DIAGNOSIS” (Photocure ASA, priority 2007, published 2015).
# Assay: Stress-study at 80° C. of HAL HCl with excipients, impurities by HPLC
# Format: physicochemical
# Set-up: key to level of impurity at relative retention time 0.8: **: An empty entry indicates no detectable levels
# Details: 20 hours, relative to a pyrazine standard
# Procedure: In order to get an indication of the stability of HAL in the presence of various excipients, a stress-study at 80° C. was performed. 100 mg HAL HCl+300 mg excipient (Poloxamer 188, Gelucire 44/14, Gelucire mixture (44/14:50/02=[…] w/w) and Miglyol 812 N) was mixed and the result after 20 hours was analysed by HPLC. The level of each impurity was calculated relative to a pyrazine standard.
compound,measurement,value
"CCCCCCOC(=O)CCC(=O)CN.Cl [HAL- HCl, Hexyl 5-aminolevulinate hydrochloride]",level of impurity Pyrazine,1.77%
same,level of impurity at relative retention time 0.8,**
same,level of impurity at relative retention time 0.88,0.46%
same,level of impurity at relative retention time 1.37,0.03%
same,level of impurity at relative retention time 1.91,0.35%
same,level of impurity at relative retention time 2.06,0.16%
